Measurements: US20240082221A1, “COMPOSITIONS AND METHODS FOR THE IDENTIFICATION OF COMPOUNDS THAT PROTECT AGAINST LIPOFUSCIN CYTOTOXICITY” (priority 2021, published 2024)

Tests used:
human MLKL = assay: Western blot of Ser358 phospho-MLKL, phosphorylation and polymerization of MLKL; format: cell-based; settings: non-reducing conditions, cells with A2E/ATRD
Method: Immunoblotting. Total cell lysates were extracted using RIPA lysis buffer (50 mM TrisHCl, Ph 8.0, 150 mM NaCl, 1% NP40, 0.5% Sodium Deoxycholate, 0.1% SDS, protease-phosphatase inhibitor) after the incubation of the specific sample group in a 48 well plate. Sonication or syringing (20 times) was done followed by centrifugation at 12,000×g for 10 mins and the supernatant was collected and stored in −80° C. Proten concentration from homogenates were assessed by Pierce Rapid Gold BCA protein assay kit (ThermoFisher Scientific, cat.no. A53225). Then 30 μg of protein was analyzed by standard SDS-PAGE gel. Samples were mixed 4:1 (v:v) with Nupage loading buffer with or without 8% 0-mercaptoethanol and heated for 10 min at 72° C. SDS-PAGE was done using 4-12% Nupage gel and buffer (Life, NP0335BOX). Next, SDS-PAGE gel was transferred to nitrocellulose membrane (Whatman, PROTAN BA83) overnight at 20V. The following day, 5% milk in TBS was used for 2 h blocking the membrane and then primary antibody was added in TBST (TBS, 0.1% Tween-20) for overnight at 4° C. Next day membranes were washed and incubated for 2 hours at room temperature with HRP conjugated secondary antibody (cat #G21234, Invitrogen) at 1:10,000 dilution. After 3 more washed membranes were probed with enhanced chemiluminescence (ECL) reagent and detected using an X-ray films for chemiluminescence image (GE healthcare, RPN2106). Scanning/imaging and quantitation of the image was done using silverfast 8 application software and Fiji Image J. Antibodies for Western blotting were list in FIG. 10.
For its phosphorylation, MLKL and its kinase need to be recruited into multiprotein complexes, known as necrosomes (FIG. 4O). Necrosomes are not well conserved among species and vary also with the nature of the stimuli that triggers their formation. […] Considering that phosphorylation of human MLKL at Ser358 (pMLKL), is a hallmark triggering event and marker of necroptosis, the Ser358-phosphorylation and polymerization status of MLKL in cells with LF was determined. […] A prerequisite for the assembly of these RIP kinases into necrosomes was their phosphorylation.

phospho-MLKL = assay: Intravitreal treatment of DKO mice, phospho-MLKL immunostaining of retina; format: in vivo, ABCA4−/− RDH8−/− double knock-out mice (DKO)
Method: Animals. Pigmented ABCA4^−/− RDH8^−/− double knock-out mice (DKO), free of rd8 mutation, were purchased from Jackson laboratories and every 10 generations were in house backcrossed to the C57BL6J control strain, to prevent genetic drifts. Genotyping was performed at Transnetyx (Memphis, TN). Only mice with ABCA4, RDH8, RPE65-Leu450 but no crb1 mutations (retinal degeneration slow) were maintained in the colony. Controls C57BL/6J (Rpe65-Leu450, crb1negative) were also Jackson's lab. All mice were housed at Weill Cornell Medicine's animal facility under a 12 h light (˜10 lux)/12 h dark cycle environment or under complete darkness. Experimental manipulations in the dark were done under dim red light transmitted through a Kodak No. 1 safelight filter (transmittance >560 nm). No retinal degeneration or necroptosis markers were appreciably detected in 20 months or older C57BL6/N (Rpe65-Met450, crb1 positive) obtained from the NAI/NIH. All animal procedures and experiments were approved by the Animal Care and Use Committee of Weill Cornell Medical College in agreement with the guidelines established by the NIH Office of Laboratory Animal Welfare and the Association of Research for Vision and Ophthalmology (ARVO) statement for the use of animals in ophthalmic research.
RPE and Neural retina flat mounts. Mouse eyes were enucleated and placed in 4% PFA in PBS for 1 h at room temperature. After fixing, a 23G needle was used to make a hole at the limbus area and iris scissors used to cut around the circumference of the limbus, remove the cornea, iris and lens, separate the neuronal retina and sclera by micro-forceps. Neuronal retina and RPE layer were dissected out and incubated with blocking buffer (1% BSA and 0.3% Triton-X-100 in PBS) for at least 20 min. Primary antibodies were added to the blocking buffer and kept at 4° C. overnight. Retina and RPE layer were washed and incubated with secondary antibodies for at least 30 min at room temperature, then washed with PBS three times. Under the dissection microscope, retina or RPE layer was cut into a four-leaf clover shape and mount on the slides in mount medium (EMS glycerol mounting medium with DAPI and DABCO, cat. No. 17989-61). Slides were stored at 4° C. until imaging.
Cryosections and Immunofluorescence staining. Mouse eyes were fixed with 4% PFA and penetrated with 30% sucrose overnight at 4° C., then cryopreserved in Tissue-Tek OCT compound (Sakura Finetek, Torrance, CA, USA) and cut into 15 μm sections. Sections were blocked with 1% BSA and 0.1% Triton-X-100 PBS, and then immunofluorescence staining was performed using standard methods and the appropriate dilutions of primary antibodies against p- p-MLKL (cell signaling), XBP1s (Biogend), Iba-1 (Abcam), CD11b (Millipore), Lamp2 (hybridoma bank), CellRox and DRAQ7 (Invitrogen), Rhodopsin (Abcam), phalloidin-CF660 (Biotium, cat.no. 0052), Hoechst33324, caspase3 (clone9664, Cell signaling). Subsequently, slides were incubated with Alexa-647, Alexa-594 secondary antibodies, and counterstained with Hoechst33324. Negative controls were included in each staining, and slides were mounted with anti-fade mount medium. Slides were stored at 4° C. before analysis on SD microscope using Zen software. For paraffin sections, mouse eyes were embedded in paraffin and cut into 5-μm sections. […]
Pharmacological treatment of mice. […] The exact volume of Mock reagent or Kira6 was determined by 10 μl Hamilton syringe. […]

| Compound | effect on LF-induced phosphorylation and polymerization of MLKL (human MLKL) | necroptosis, intracellular and plasma membrane pMLKL labelling in RPE flat mounts (phospho-MLKL; 26 month old DKO mice, intraocular, a week later) | pMLKL/XBP1s double positive cells (RPE and microglia) (phospho-MLKL; demelanized paraffin cross-sections, 20 month old DKOs, control 33%) [%] | membrane and cytosolic pMLKL labeling in RPE flat mounts (phospho-MLKL; 12 month old DKOs, single intraocular injection, analyzed one week later) | membrane and cytosolic phospho-MLKL staining in RPE flat mounts (phospho-MLKL; 26-month-old DKO mice, 2 μl intraocular, a week later) | phospho-MLKL (necroptosis) labeling in neuroretina-flat mounts (phospho-MLKL; DKO mice, intraocular, 1 week earlier) |
| --- | --- | --- | --- | --- | --- | --- |
| CC(C)(C)c1nc(-c2ccc(NC(=O)Nc3cccc(C(F)(F)F)c3)c3ccccc23)c2c(N)nccn12 [KIRA6] | prevents phosphorylation and polymerization of MLKL | abrogated necroptosis | 4 | – | – | – |
| N=C1S/C(=C\c2cn[nH]c2-c2ccc(F)cc2)C(=O)N1c1nccs1 [Nec7, Necrostatin 7] | reduced LF-induced phosphorylation and polymerization of MLKL | – | – | reduced to undetectable levels | reduced membrane and cytosolic phospho-MLKL staining to undetectable levels | significantly reduced |
